Test results as given in patent publication US11976083B2, “Inhibitors of peptidylarginine deiminases” (Gilead Sciences, Inc., priority 2020, dated 2024).

Target: T1, human PAD4 (Homo sapiens, UniProt Q9UM07)
T1 construct: human PAD4 (NM_012387), A2-P663, was PCR amplified; His-SUMO (N, cleaved yes); made in house; host or cells: E. coli BL21(DE3)
Test: In vitro PAD4 BAEE biochemical assay
Settings: BAEE substrate 3 mM, 5 nM PAD4, 2 mM calcium chloride; geometric mean of multiple experiments
Method in brief: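 Fluorescence read-out (ex 405/em 535 nm) of isoindole formed from ammonia, o-phthalaldehyde and DTT after EDTA stop. Reaction: 5 nM PAD4, 2 mM CaCl2, 3 mM BAEE, 2 h, 25 °C, after 30 min enzyme–compound preincubation. Normalised to BB-Cl-Amidine (50 µM) and DMSO controls.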

T1 sequence (Q9UM07 2-663): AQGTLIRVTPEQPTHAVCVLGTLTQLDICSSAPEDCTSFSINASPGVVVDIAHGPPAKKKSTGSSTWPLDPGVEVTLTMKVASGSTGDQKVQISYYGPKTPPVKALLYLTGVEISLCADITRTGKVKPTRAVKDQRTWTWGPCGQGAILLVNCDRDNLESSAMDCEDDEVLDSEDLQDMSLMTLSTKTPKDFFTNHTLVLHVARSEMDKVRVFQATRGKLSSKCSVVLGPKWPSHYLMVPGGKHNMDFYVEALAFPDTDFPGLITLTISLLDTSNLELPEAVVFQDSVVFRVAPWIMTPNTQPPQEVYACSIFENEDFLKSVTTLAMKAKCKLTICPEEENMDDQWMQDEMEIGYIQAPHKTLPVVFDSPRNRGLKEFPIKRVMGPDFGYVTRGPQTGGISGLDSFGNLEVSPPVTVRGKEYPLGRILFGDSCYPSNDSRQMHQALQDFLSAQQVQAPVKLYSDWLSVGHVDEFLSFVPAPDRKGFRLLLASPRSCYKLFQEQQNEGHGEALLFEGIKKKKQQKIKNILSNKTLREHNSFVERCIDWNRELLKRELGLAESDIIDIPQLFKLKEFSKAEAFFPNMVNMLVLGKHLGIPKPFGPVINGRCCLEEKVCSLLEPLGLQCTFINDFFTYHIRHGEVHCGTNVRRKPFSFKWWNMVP

Question: How did the IC50 turn out when `COc1cc(C(=O)N2CCC[C@@H](N)C2)cc2nc(-c3cc4ccc5nc4n3CC3(CCCCCC(=O)N[C@@H]5C)CC3)n(C)c12` [Example 114, (11~{R})-17-[5-[(3~{R})-3-aminopiperidine-1-carbonyl]-7-methoxy-1-methyl-benzimidazol-2-yl]-11-methyl-spiro[1,10,19-triazatricyclo[10.5.2.0^{15,18}]nonadeca-12(19),13,15(18),16-tetraene-3,1′-cyclopropane]-9-one] was run?
Answer: 61 nM

Question: `C[C@H]1NC(=O)C(C)(C)CCCCCCn2c(-c3nc4cc(C(=O)N5CCC[C@@H](N)C5)ccc4n3C3CC3)cc3ccc1nc32` [Example 117, (11~{R})-17-[5-[(3~{R})-3-aminopiperidine-1-carbonyl]-1-cyclopropyl-benzimidazol-2-yl]-8,8,11-trimethyl-1,10,19-triazatricyclo[10.5.2.0^{15,18}]nonadeca-12(19),13,15(18),16-tetraen-9-one] was tested. Which IC50 did it give?
Answer: 54 nM

Question: How did the IC50 turn out when `COc1cc(C(=O)N2CCC[C@@H](N)C2)cc2nc(-c3cc4ccc5nc4n3C[C@H]3C[C@H]3CCCCC(=O)N[C@@H]5C)n(C)c12` [Example 118, (3~{S},5~{R},12~{R})-18-[5-[(3~{R})-3-aminopiperidine-1-carbonyl]-7-methoxy-1-methyl-benzimidazol-2-yl]-12-methyl-1,11,20-triazatetracyclo[11.5.2.0^{3,5}.0^{16,19}] icosa-13(20),14,16(19),17-tetraen-10-one] was run?
Answer: 41 nM

Question: How did the IC50 turn out when `COc1cc(C(=O)N2CCC[C@@H](N)C2)cc2nc(-c3cc4ccc5nc4n3C[C@H]3C[C@H]3CCCC(C)(C)C(=O)N[C@@H]5C)n(C)c12` [Example 119, (3~{S},5~{R},12~{R})-18-[5-[(3~{R})-3-aminopiperidine-1-carbonyl]-7-methoxy-1-methyl-benzimidazol-2-yl]-9,9,12-trimethyl-1,11,20-triazatetracyclo[11.5.2.0^{3,5}.0^{16,19}] icosa-13(20),14,16(19),17-tetraen-10-one] was run?
Answer: 60 nM

Question: `COc1cc(C(=O)N2[C@H]3CC[C@@H]2[C@H](N)C3)cc2nc(-c3cc4ccc5nc4n3C/C=C\CCCCCC(=O)N[C@@H]5C)c(C)n12` [Example 120, (12˜{R})-18-[7-[(1˜{R},2˜{R},4˜{S})-2-amino-7-azabicyclo[2.2.1]heptane-7-carbonyl]-5-methoxy-3-methyl-imidazo[1,2-a]pyridin-2-yl]-12-methyl-1,11,20-triazatricyclo[11.5.2.0^{16,19}]icosa-3,13(20),14,16(19),17-pentaen-10-one] was tested. Which IC50 did it give?
Answer: 22 nM

Question: With `COc1cc(C(=O)N2[C@H]3CC[C@@H]2[C@H](N)C3)cc2nc(-c3cc4ccc5nc4n3CCCCCCC(C)(C)C(=O)N[C@@H]5C)c(C)n12` [Example 121, (11~{R})-17-[7-[(1~{R},2~{R},4~{S})-2-amino-7-azabicyclo[2.2.1]heptane-7-carbonyl]-5-methoxy-3-methyl-imidazo[1,2-a]pyridin-2-yl]-8,8,11-trimethyl-1,10,19-triazatricyclo[10.5.2.0^{15,18}]nonadeca-12(19),13,15(18),16-tetraen-9-one] as the molecule, how does the IC50 read?
Answer: 46 nM

Question: How did the IC50 turn out when `COc1cc(C(=O)N2[C@H]3CC[C@@H]2[C@H](N)C3)cc2nc(-c3cc4ccc5nc4n3CCCCCC[C@@H](C)C(=O)N[C@@H]5C)c(C)n12` [Example 122, (8~{R},11~{R})-17-[7-[(1~{R},2~{R},4~{S})-2-amino-7-azabicyclo[2.2.1]heptane-7-carbonyl]-5-methoxy-3-methyl-imidazo[1,2-a]pyridin-2-yl]-8,11-dimethyl-1,10,19-triazatricyclo[10.5.2.0^{15,18}]nonadeca-12(19),13,15(18),16-tetraen-9-one] was run?
Answer: 16 nM

Question: Which IC50 does the source give for `COc1cc(C(=O)N2[C@H]3CC[C@@H]2[C@H](N)C3)cc2nc(-c3cc4ccc5nc4n3C/C=C\CCCCC(=O)N[C@@H]5C)c(C)n12` [Example 123, (3~{2},11~{R})-17-[7-[(1~{R},2~{R},4~{S})-2-amino-7-azabicyclo[2.2.1]heptane-7-carbonyl]-5-methoxy-3-methyl-imidazo[1,2-a]pyridin-2-yl]-11-methyl-1,10,19-triazatricyclo[10.5.2.0^{15,18}]nonadeca-3,12(19),13,15(18),16-pentaen-9-one] here?
Answer: 12 nM

Question: How did the IC50 turn out when `COc1cc(C(=O)N2[C@H]3CC[C@@H]2[C@H](N)C3)cc2nc(-c3cc4ccc5nc4n3CCCCCC[C@H](C)C(=O)N[C@@H]5C)c(C)n12` [Example 124, (8~{S},11~{R})-17-[7-[(1~{R},2~{R},4~{S})-2-amino-7-azabicyclo[2.2.1]heptane-7-carbonyl]-5-methoxy-3-methyl-imidazo[1,2-a]pyridin-2-yl]-8,11-dimethyl-1,10,19-triazatricyclo[10.5.2.0^{15,18}]nonadeca-12(19),13,15(18),16-tetraen-9-one] was run?
Answer: 12 nM

Question: With `COc1cc(C(=O)N2[C@H]3CC[C@@H]2[C@H](N)C3)cc2nc(-c3cc4ccc5nc4n3CCCCCCCC(=O)N3CCC[C@H]53)n(C)c12` [Example 125, (2˜{R})-16-[5-[(1˜{R},2˜{R},4˜{S})-2-amino-7-azabicyclo[2.2.1]heptane-7-carbonyl)-7-methoxy-1-methyl-benzimidazol-2-yl]-6,15,21-triazatetracyclo[13.5.2.0^{2,6}.0^{18,22}]docosa-1(21),16,18(22),19-tetraen-7-one] as the molecule, how does the IC50 read?
Answer: 21 nM

Question: Which IC50 does the source give for `COc1cc(C(=O)N2[C@H]3CC[C@@H]2[C@H](N)C3)cc2nc(-c3cc4ccc5nc4n3CCCCCC(C)(C)C(=O)N[C@@H]5C)c(C)n12` [Example 126, (10~{R})-16-[7-[(1~{R},2~{R},4~{S})-2-amino-7-azabicyclo[2.2.1]heptane-7-carbonyl]-5-methoxy-3-methyl-imidazo[1,2-a]pyridin-2-yl]-7,7,10-trimethyl-1,9,18-triazatricyclo[9.5.2.0^{14,17}]octadeca-11(18),12,14(17),15-tetraen-8-one] here?
Answer: 25 nM

Question: Which IC50 does the source give for `COc1cc(C(=O)N2[C@H]3CC[C@@H]2[C@H](N)C3)cc2nc(-c3cc4ccc5nc4n3CCCCCCCCC(=O)N5C)c(C)n12` [Example 127, 17-[7-[(1˜{R},2˜{R},4˜{S})-2-amino-7-azabicyclo[2.2.1]heptane-7-carbonyl]-5-methoxy-3-methyl-imidazo[1,2-a]pyridin-2-yl]-11-methyl-1,11,19-triazatricyclo[10.5.2.0^{15,18}]nonadeca-12(19),13,15(18),16-tetraen-10-one] here?
Answer: 31 nM

Question: Which IC50 does the source give for `COc1cc(C(=O)N2[C@H]3CC[C@@H]2[C@H](N)C3)cc2nc(-c3cc4ccc5nc4n3CCCCCC(=O)N3CCC[C@H]53)n(C)c12` [Example 128, (2~{R})-14-[5-[(1~{R},2~{R},4~{S})-2-amino-7-azabicyclo[2.2.1]heptane-7-carbonyl]-7-methoxy-1-methyl-benzimidazol-2-yl]-6,13,19-triazatetracyclo[11.5.2.0^{2,6}.0^{16,20}] icosa-1(19),14,16(20),17-tetraen-7-one] here?
Answer: 13 nM

Question: For `COc1cc(C(=O)N2[C@H]3CC[C@@H]2[C@H](N)C3)cc2nc(-c3cc4ccc5cc4n3CCCCCCCC(=O)N3CCC[C@H]53)n(C)c12` [Example 129, (2~{R})-16-[5-[(1~{R},2~{R},4~{S})-2-amino-7-azabicyclo[2.2.1]heptane-7-carbonyl]-7-methoxy-1-methyl-benzimidazol-2-yl]-6,15-diazatetracyclo[13.5.2.0^{2,6}.0^{18,22}] docosa-1(21),16,18(22),19-tetraen-7-one], which IC50 is on record?
Answer: 13 nM

Question: With `COc1cc(C(=O)N2[C@H]3CC[C@@H]2[C@H](N)C3)cc2nc(-c3cc4ccc5nc4n3CCCCCCCCC(=O)N3CCC[C@H]53)n(C)c12` [Example 130, (2~{R})-17-[5-[(1~{R},2~{R},4~{S})-2-amino-7-azabicyclo[2.2.1]heptane-7-carbonyl]-7-methoxy-1-methyl-benzimidazol-2-yl]-6,16,22-triazatetracyclo[14.5.2.0^{2,6}.0^{19,23}] tricosa-1(22),17,19(23),20-tetraen-7-one] as the molecule, how does the IC50 read?
Answer: 21 nM

Question: With `COc1cc(C(=O)N2[C@H]3CC[C@@H]2[C@H](N)C3)cc2nc(-c3cc4ccc5nc4n3CCCCCCC(=O)N3CCC[C@H]53)n(C)c12` [Example 131, (2~{R})-15-[5-[(1~{R},2~{R},4~{S})-2-amino-7-azabicyclo[2.2.1]heptane-7-carbonyl]-7-methoxy-1-methyl-benzimidazol-2-yl]-6,14,20-triazatetracyclo[12.5.2.0^{2,6}.0^{17,21}] henicosa-1(20),15,17(21),18-tetraen-7-one] as the molecule, how does the IC50 read?
Answer: 15 nM

Question: Which IC50 does the source give for `COc1cc(C(=O)N2[C@H]3CC[C@@H]2[C@H](N)C3)cc2nc(-c3cc4ccc5nc4n3CCCCOCCC(=O)N3CCC[C@H]53)n(C)c12` [Example 132, (2~{R})-16-[5-[(1~{R},2~{R),4~{S})-2-amino-7-azabicyclo[2.2.1]heptane-7-carbonyl]-7-methoxy-1-methyl-benzimidazol-2-yl]-10-oxa-6,15,21-triazatetracyclo[13.5.2.0^{2,6}.0^{18,22}] docosa-1(21),16,18(22),19-tetraen-7-one] here?
Answer: 28 nM

Question: Which IC50 does the source give for `COc1cc(C(=O)N2[C@H]3CC[C@@H]2[C@H](N)C3)cc2nc(-c3cc4ccc5nc4n3CCCCOCC(=O)N3CCC[C@H]53)n(C)c12` [Example 133, (2~{R})-15-[5-[(1~{R},2~{R},4~{S})-2-amino-7-azabicyclo[2.2.1]heptane-7-carbonyl]-7-methoxy-1-methyl-benzimidazol-2-yl]-9-oxa-6,14,20-triazatetracyclo[12.5.2.0^{2,6}.0^{17,21}] henicosa-1(20),15,17(21),18-tetraen-7-one] here?
Answer: 47 nM

Question: With `COc1cc(C(=O)N2[C@H]3CC[C@@H]2[C@H](N)C3)cc2nc(-c3cc4ccc5nc4n3CCCCCCCC(=O)N3CC4(CC4)CC53)n(C)c12` (stereo partly shown) [Example 134, 16-[5-[(1˜{R},2˜{R},4˜{S})-2-amino-7-azabicyclo[2.2.1]heptane-7-carbonyl]-7-methoxy-1-methyl-benzimidazol-2-yl]spiro[6,15,21-triazatetracyclo[13.5.2.0^{2,6}.0^{18,22}]docosa-1(21),16,18(22),19-tetraene-4,1′-cyclopropane]-7-one] as the molecule, how does the IC50 read?
Answer: 125 nM
